The results in this text go back to ChEMBL document CHEMBL3507680, “University of Dundee, Gates Library screen for HepG2 cell viability”.

The nature of the data set: Human HepG2 cell viability assay in 384 well format. It is filed as toxicity, cell-based. The arrangement: dose 125 nL, time 70.5 hour; concentration not given beside the values. The conditions noted are these: HepG2 cells, read-out: Inhibition.
On to `Cc1ccc(C)c(CN2CCOC(c3noc(C)n3)C2)c1` (stereo not drawn), for which the cytotoxicity at 70.5 h was -4.49%.

Take `Cc1cccc(=O)n1CCC(=O)N1CCC2(CC1)OCCCC2O` (stereo not drawn): the cytotoxicity at 70.5 h is -3.41%.

With `CNC(=O)CC1CCN(C(=O)NCc2cn3c(C)cccc3n2)CC1`, the cytotoxicity at 70.5 h is -14.3%.

In the case of `C1CC(c2noc(C3CC3)n2)N(Cc2nc(C3CC3)no2)C1` (stereo not drawn), the cytotoxicity at 70.5 h is -10.7%.

On to `COCCCN1CC2(CCCN(CCn3cc(Cl)cn3)C2)CCC1=O` (stereo not drawn), for which the cytotoxicity at 70.5 h was -21.9%.

On to `CC1CCN(c2ccc(CNC(=O)NCCn3ccnc3)cn2)CC1`, for which the cytotoxicity at 70.5 h was -0.689%.

As to `CCOc1ncccc1C(=O)N1CCCCC1c1nccs1` (stereo not drawn), the cytotoxicity at 70.5 h stood at 2.5%.

Consider `Cc1ccc(CN(CCN(C)C)C(=O)Cc2cn3ccccc3n2)o1`, for which the cytotoxicity at 70.5 h was -3.69%.

For `CC(c1ccon1)N(C)Cc1cc(O)c2cc(F)ccc2n1` (stereo not drawn), the cytotoxicity at 70.5 h is -10.6%.

As for `O=C(CN1CCCCCC1)NCc1ccc2[nH]c(=O)[nH]c2c1`, the cytotoxicity at 70.5 h was -8.16%.

Take `CN(Cc1nc(C(C)(C)C)no1)C1CCS(=O)(=O)C1` (stereo not drawn): the cytotoxicity at 70.5 h was 6.01%.

On to `CCc1n[nH]c(C2CN(Cc3csc(C4CCCC4)n3)CCO2)n1` (stereo not drawn), for which the cytotoxicity at 70.5 h stood at 6.69%.

Take `CC(=O)N1CC2(CCN(c3nccc4ccccc34)CC2)CC1C(=O)O` (stereo not drawn): the cytotoxicity at 70.5 h is -9.28%.

For `Cc1ccccc1SCC(=O)NS(=O)(=O)c1ccc2c(c1)OCCO2`, the cytotoxicity at 70.5 h is -2.48%.

In the case of `CN1C(=O)C2(CCN(C(=O)c3cccnc3)CC2)c2cccc(F)c21`, the cytotoxicity at 70.5 h is -2.04%.

As for `CN(C)C(=O)[C@@H]1C[C@@H]2[C@@H](CCN2Cc2nccs2)O1`, the cytotoxicity at 70.5 h is -5.24%.

In the case of `O=C(NCc1noc(C2CCCO2)n1)c1cn2ccsc2n1` (stereo not drawn), the cytotoxicity at 70.5 h was -9.32%.

In the case of `O=C(Nc1nc2c(s1)CNCC2)NC1CCCC1`, the cytotoxicity at 70.5 h was 18.7%.

Consider `COc1ccc2c(ccn2CCN)c1`, for which the cytotoxicity at 70.5 h worked out at 5.97%.

For `CN(C)C(=O)COCC1CN(Cc2ccco2)Cc2ncn(C)c21` (stereo not drawn), the cytotoxicity at 70.5 h was -0.299%.

Regarding `CCn1c(CN2CCCC2)nnc1C1CCN(Cc2ccc(C)o2)CC1`, the cytotoxicity at 70.5 h is -5.38%.

For the molecule `CCCc1cnc(C)nc1N1CCC(Cn2cc(C(C)O)nn2)CC1` (stereo not drawn), the cytotoxicity at 70.5 h was -13.9%.

Take `CC(C)c1nnc(NC(=O)CCc2cc(F)ccc2F)[nH]1`: the cytotoxicity at 70.5 h was -16.3%.

Turning to `COC(=O)C1CN(Cc2nc(-c3ccccc3)cs2)C[C@@H](C)O1` (stereo partly drawn), the cytotoxicity at 70.5 h stood at 3.89%.

Turning to `O=C(c1ccc(-c2cccc3c2CCNC3)o1)N1CCCCC1`, the cytotoxicity at 70.5 h was -3.94%.

On to `CN(C)S(=O)(=O)N1CCCC(c2nccnc2-c2cccc(Cl)c2)C1` (stereo not drawn), for which the cytotoxicity at 70.5 h was -1.8%.

`Clc1snnc1CN1CCCCC1Cn1cccn1` (stereo not drawn): the cytotoxicity at 70.5 h is 26.2%.

Turning to `COc1cccc(-c2nc(CNCCn3cccn3)cs2)c1`, the cytotoxicity at 70.5 h was -7.96%.

Turning to `O=S(=O)(Nc1cnn(C2CCOCC2)c1)c1ccc(F)c(F)c1`, the cytotoxicity at 70.5 h was determined as 1.31%.

On to `CC(C)NC(=O)NC[C@@]1(COc2cnccn2)C[C@@H](O)[C@@H](O)C1`, for which the cytotoxicity at 70.5 h stood at 3.08%.

With `CCc1ccc(C(=O)NC[C@H]2CCCN2C(=O)c2ccc(CC)o2)o1`, the cytotoxicity at 70.5 h was 2.7%.

On to `O=C1NCCCCC1NCc1csc(-c2ccc(F)cc2)n1` (stereo not drawn), for which the cytotoxicity at 70.5 h came to 6.14%.

As for `CN1CCN(Cc2cn3c(n2)CN(C(=O)c2ccco2)CC3)CC1`, the cytotoxicity at 70.5 h was 1.76%.

Consider `Cc1ccccc1N1CC2(CCCCN2CC2CC2)CC1=O` (stereo not drawn), for which the cytotoxicity at 70.5 h is -3.78%.

With `COc1ccc([C@@H]2CN(C(=O)CCn3cccn3)C[C@H]2NC(C)=O)cc1`, the cytotoxicity at 70.5 h worked out at 6.76%.

For `CN(CCCc1cnn(C)c1)C(=O)C1CCCN(C2CCCC2)C1` (stereo not drawn), the cytotoxicity at 70.5 h turned out to be 7.47%.

Take `Cc1nn(C)c(N(C)C)c1CNC1CCc2cc(F)ccc21` (stereo not drawn): the cytotoxicity at 70.5 h is -4.67%.

As to `CNCc1cc(F)ccc1Oc1ccc(F)cc1F`, the cytotoxicity at 70.5 h is -0.802%.

For `CC[C@H]1CN2CC[C@H]1C[C@@H]2CNC(=O)Nc1ccc(Br)cc1`, the cytotoxicity at 70.5 h was -0.477%.

With `COc1ccc(OC)c(C(C(=O)O)N2CCSCC2)c1` (stereo not drawn), the cytotoxicity at 70.5 h was -4.28%.

Turning to `CN1CCN(c2cc(NC(=O)c3cnccn3)ncn2)CC1`, the cytotoxicity at 70.5 h came to 0.507%.

Turning to `CCOC(=O)[C@]12CCCN(Cc3ccsc3)C[C@H]1CN(CCOC)C2`, the cytotoxicity at 70.5 h was -5.12%.

As for `O=C(NCCN1CCCC(CO)C1)c1ccc2scnc2c1` (stereo not drawn), the cytotoxicity at 70.5 h is -13.1%.

For `CCN1CCN(C2CCN(C(C(N)=O)c3ccc(F)cc3)CC2)C1=O` (stereo not drawn), the cytotoxicity at 70.5 h was 5.11%.

For `COc1cc2nc3n(c(=O)c2cc1OC)CCN(C)CC3`, the cytotoxicity at 70.5 h was 3.41%.

Take `Cc1cccc(CN2CC[C@@H]3[C@@H]2CCN3C(=O)c2ccoc2C)n1`: the cytotoxicity at 70.5 h turned out to be 0.304%.

In the case of `CCCc1nnc(NC(=O)NC2CCOc3ccccc32)s1` (stereo not drawn), the cytotoxicity at 70.5 h was -4.65%.

Take `CCC1COCCN1C(=O)NCc1nccn1Cc1ccccc1` (stereo not drawn): the cytotoxicity at 70.5 h is -2.58%.

Turning to `CN(CC(N)=O)S(=O)(=O)c1ccc(F)cc1Cl`, the cytotoxicity at 70.5 h is -11.4%.

Take `CN(C)S(=O)(=O)N1CCC(c2c(C(N)=O)sc3ccccc23)C1` (stereo not drawn): the cytotoxicity at 70.5 h is -3.67%.

In the case of `Cc1ccc(CC(=O)N2Cc3nccn3CC(Cn3cccn3)C2)cc1` (stereo not drawn), the cytotoxicity at 70.5 h is -0.504%.

`CN(Cc1cccnc1)[C@@H]1CN(C(=O)c2ccno2)[C@@H]2CCCO[C@H]12`: the cytotoxicity at 70.5 h is -5.28%.

In the case of `CC(=O)N1CCC(NC(=O)N(C)Cc2c(C)noc2C)CC1`, the cytotoxicity at 70.5 h was -8.21%.

As for `Cc1cc(Cl)ccc1NCc1cnn(C2CCS(=O)(=O)C2)c1` (stereo not drawn), the cytotoxicity at 70.5 h worked out at 5.78%.

On to `Cc1noc([C@@H]2C[C@H]3CN(Cc4ccc5c(c4)OCO5)C[C@H]3O2)n1`, for which the cytotoxicity at 70.5 h was -16.8%.

For `CN1CCN(Cc2cnc(S(=O)(=O)CC3CC3)n2CC2CCCO2)CC1` (stereo not drawn), the cytotoxicity at 70.5 h was -4.87%.

Regarding `Cc1nnc(C(C)NCC2(c3c(F)cccc3F)CCCC2)o1` (stereo not drawn), the cytotoxicity at 70.5 h is -2.47%.

Regarding `COc1ccc(Cl)cc1C(C(=O)O)N(C)Cc1ccon1` (stereo not drawn), the cytotoxicity at 70.5 h worked out at 11.7%.

Regarding `O=C(c1ccc[nH]1)N1CCn2cc(Cn3cccn3)nc2C1`, the cytotoxicity at 70.5 h was -8.4%.

Regarding `Cn1cc(C2CC(=O)NC23CCN(CC2CC2)CC3)cn1` (stereo not drawn), the cytotoxicity at 70.5 h stood at 9.8%.

Regarding `O=C(Nc1cc(-c2ccccn2)no1)C1CC1`, the cytotoxicity at 70.5 h was determined as 11.7%.

On to `COC(=O)c1ccc(N(C(=O)c2ccncc2)C(C)C)c(C)c1`, for which the cytotoxicity at 70.5 h is -17.2%.

As to `CCOc1ccc(CN(C)C(=O)NC(C)c2nncn2C)cc1` (stereo not drawn), the cytotoxicity at 70.5 h turned out to be 8.83%.

As to `CC(C)c1ccc(CC(=O)N2CCCC3(CN(C)C(=O)O3)C2)cc1` (stereo not drawn), the cytotoxicity at 70.5 h is 22.5%.

`Cc1cc(C)c(CNC(=O)NCC2Cc3ccccc32)c(=O)[nH]1` (stereo not drawn): the cytotoxicity at 70.5 h is -12%.

For `CC(C)C(Sc1nnnn1C1CC1)C(=O)NCc1ccccc1` (stereo not drawn), the cytotoxicity at 70.5 h is -7.04%.

On to `Cn1cc(S(=O)(=O)N2CCCC(Cn3cncn3)C2)cn1` (stereo not drawn), for which the cytotoxicity at 70.5 h was -2.09%.

Regarding `CC(=O)N1Cc2nccn2CC(CNC(=O)c2cccnc2)C1` (stereo not drawn), the cytotoxicity at 70.5 h was -11.5%.

On to `CCc1noc(CCC(=O)N[C@@H]2CC[C@@H](n3ccnc3)[C@@H]2O)n1`, for which the cytotoxicity at 70.5 h was -8.61%.

Take `CCC(=O)Nc1ccc(C(C)Nc2nc3c(cnn3C)c(=O)[nH]2)cc1` (stereo not drawn): the cytotoxicity at 70.5 h was -5.84%.

On to `COc1ccc(CNCC(C)Oc2ccccn2)cc1Cl` (stereo not drawn), for which the cytotoxicity at 70.5 h was -8.86%.

With `CCN(Cc1cccc(F)c1)Cn1nc(C)c2c(C)onc2c1=O`, the cytotoxicity at 70.5 h is -8.8%.

As for `COCCn1/c(=N\C(=O)CN(C)S(C)(=O)=O)sc2cc(C)ccc21`, the cytotoxicity at 70.5 h amounted to 14.4%.

In the case of `Cc1noc(C)c1CN1C[C@@H]2COC[C@@H](C(=O)N3CCCCO3)[C@@H]2C1`, the cytotoxicity at 70.5 h is -8.21%.

For `CN(C)C(=O)N1CCCn2nc(CNC(=O)CCc3ccsc3)cc2C1`, the cytotoxicity at 70.5 h is -9.25%.

Regarding `CC(=O)N1CC(C)CN(C(=O)c2cnccn2)c2ccccc21` (stereo not drawn), the cytotoxicity at 70.5 h was -12.2%.

`Cc1cc(C(=O)Nc2ccc(CN3CCOCC3)cn2)n(C)n1`: the cytotoxicity at 70.5 h is -5.67%.

For `O=C1CN(S(=O)(=O)CC(F)(F)F)CC(O)CN1CCCc1ccccc1` (stereo not drawn), the cytotoxicity at 70.5 h is -3.16%.

Regarding `CNC(=O)C1(C)CN(Cc2cn(C)c3ccc(F)cc23)CCO1` (stereo not drawn), the cytotoxicity at 70.5 h was -9.03%.

`COc1ccc(C)cc1CN1CCN(Cc2nccn2C)C(C)C1` (stereo not drawn): the cytotoxicity at 70.5 h was found to be 7.41%.

`CC(C)NC(=O)CN(C)C1CCN(c2ccc(C#N)cn2)CC1`: the cytotoxicity at 70.5 h amounted to 0.463%.

As to `CCn1cnnc1CNC(=O)c1cc(Cl)ccc1OC`, the cytotoxicity at 70.5 h is -4.87%.

Take `Cc1noc(C)c1-c1cccc(C2CCN(CC(=O)N(C)C)CC2)n1`: the cytotoxicity at 70.5 h was -2.68%.

Take `Cn1c(CCNC(=O)CC[C@@H]2CCCN3CCCC[C@H]23)n[nH]c1=O`: the cytotoxicity at 70.5 h was -14.7%.

As for `Cc1nc2sccn2c1C(=O)N1CCc2c(nc(N(C)C)[nH]c2=O)C1`, the cytotoxicity at 70.5 h was determined as 1.53%.

Turning to `CCC(NC(=O)C1CCN(C(=O)C2CC2)CC1)c1cn2cccnc2n1` (stereo not drawn), the cytotoxicity at 70.5 h was -8.35%.

As for `O=C1CO[C@@H]2CN(Cc3ccsc3)C[C@H]2N1Cc1ccncc1`, the cytotoxicity at 70.5 h came out at 13.6%.

`Cc1nn(C)c(N2CCOCC2)c1CNC1CCc2cc(F)ccc21` (stereo not drawn): the cytotoxicity at 70.5 h is -19.2%.

Consider `CSc1nccc(NCc2cc3n(n2)CCCN(S(C)(=O)=O)C3)n1`, for which the cytotoxicity at 70.5 h is -12.4%.

Turning to `COCc1cc(O)nc(C2CCCN(Cc3ccc(OC)cc3)C2)n1` (stereo not drawn), the cytotoxicity at 70.5 h is -2.96%.

As for `Cc1cnn(CCC(=O)NC2CCc3nc(C)cn3C2)c1` (stereo not drawn), the cytotoxicity at 70.5 h is -3.94%.

`CC1CCN(C(=O)CSCCN2CCOCC2)CC1`: the cytotoxicity at 70.5 h was 4.07%.

Consider `c1cncc(O[C@H]2COCCN(Cc3c[nH]c4ccccc34)C2)c1`, for which the cytotoxicity at 70.5 h was 4.1%.

`CC(C)Cc1noc(CN2CCC(C(=O)NCC3CCCO3)CC2)n1` (stereo not drawn): the cytotoxicity at 70.5 h is 10.6%.

`O=C(CCN1CCCC1)N1CC[C@@H](c2ccc3ccccc3c2)[C@H](O)C1`: the cytotoxicity at 70.5 h is -21%.

For `C=C(C)COc1cccc(CN(CC)Cc2noc(C)n2)c1`, the cytotoxicity at 70.5 h was -0.0989%.

Regarding `CC(NC(=O)c1ccc(C#N)cn1)C1(N2CCOCC2)CCCC1` (stereo not drawn), the cytotoxicity at 70.5 h is -7.03%.

For `CCc1c(C)nc2ccccc2c1N1CCC(O)CC1`, the cytotoxicity at 70.5 h is -3.88%.
